For one data set, the system named is MCF-7 cells. The data set can be described thus: MTT cell proliferation assay, MCF-7. The format is cell-based, human. To be noted: Homo sapiens, MCF7; MTT, 24 hours treatment, curve fitting; read-out: IC50, proliferation of MCF-7 cells. As for the experimental part: FIG. 8. Effects of HCB on the proliferation of MCF-7 cells. MCF-7 cells were seeded in 96 well plates and treated with drugs at varied concentration for 24 hours. MTT assay was performed to determine remaining viable cells in each well. Results are represented as mean±S.D. (n=7). IC50 was determined by curve fitting.
3-(4,5-Dimethylthiazol-2-yl)-2,5-diphenyltetrazolium Bromide (MTT) Cell Proliferation Assay. To cells grown in 96-well-tissue culture plate, 20 μl/well of MTT solution (5 mg/ml in PBS) was added. After 1-2 hours incubation at 37° C., the plate was centrifuged. Supernatant was discarded and 100 μl DMSO was added to dissolve water insoluble formazan, and the absorbance was read at 540 nm with a plate reader.

The subject of data set [1] is SARS-CoV-2. Description: SARS-CoV-2 antiviral assay in Vero cells. The format is cell-based. To be noted: Severe acute respiratory syndrome coronavirus 2, Vero.
Data set [2] concerns SARS-CoV-2. Description: microbe, parasite or virus in culture. It is filed as cell-based.
The next data set can be described thus: in vitro. To be noted: African green monkey, Vero E6 cells.
Another data set has as its system Vero cells. Description: Cytotoxicity assay in Vero cells.
The nature of data set [3]: Cytotoxicity assay in 293T/ACE2 cells. The conditions noted are these: human, HEK293T/17 cells expressing human ACE2.
In data set [4] the test system is 293T human embryonic kidney cells over-expressing the ACE2 receptor. Description: Cytotoxicity assay in 293T/ACE2 cells. To be noted: 293T/ACE2 cytotoxicity.

Four molecules from patent US20240067603A1, “CUBANYL BIGUANIDE COMPOUNDS” (REGENTS OF THE UNIVERSITY OF MINNESOTA, priority 2020, published 2024) can be followed below.

A value given as a limit tells only on which side of the number the result lay.

As for `N=C(NCC12C3C4C5C3C1C5C42)NC(=N)NCC12C3C4C5C3C1C5C42` (centres unmarked) [DCB, Dicubanomethyl Biguanide], the IC50 in the data set with MCF-7 cells worked out at 22.1 ± 1.7 µM.

In the case of `CC(F)(F)CCCCNC(=N)NC(=N)NCC12C3C4C5C3C1C5C42` (centres unmarked) [HCB-F2, N1-5′,5′-difluorohexyl-N5-(cuban-1-yl)methyl-biguanide], the IC50 with MCF-7 cells came to 13.5 µM.

For the molecule `N=C(NCCCCCC(F)(F)F)NC(=N)NCC12C3C4C5C3C1C5C42` (centres unmarked) [HCB-F3, N1-6′,6′,6′-trifluorohexyl-N5-(cuban-1′-yl)methyl-biguanide], the IC50 in the data set with MCF-7 cells was determined as 13.7 µM.

For `CCC(CC)COC(=O)[C@H](C)N[P@](=O)(OC[C@H]1O[C@@](C#N)(c2ccc3c(N)ncnn23)[C@H](O)[C@@H]1O)Oc1ccccc1` [remdesivir], the IC50 worked out at 1040 nM with SARS-CoV-2 [1] (read-out: antiviral IC50) and 20 nM in the data set on SARS-CoV-2 [2] (Severe acute respiratory syndrome coronavirus 2, 293T/ACE2, read-out: antiviral IC50). For the same molecule, the IC90 amounted to 2250 nM in the data set on SARS-CoV-2 [1] (read-out: antiviral IC90) and 22 nM with SARS-CoV-2 [2] (Severe acute respiratory syndrome coronavirus 2, 293T/ACE2, read-out: antiviral IC90). In “in vitro”, the CC50 at 48 h is above 20 µM. For the same molecule, the values for the CC10 (in the data set with Vero cells; in data set [4]) were above 0.286 µM and above 0.1 µM, respectively. The same molecule gave a CC50 in data set [3] above 100 nM.

By IC90 is commonly meant the point of the concentration-response curve where the effect stands at 90%. In general, CC50 refers to the concentration at which the toxic effect on the cells reaches its halfway point. A high value points to lower toxicity to the cells.
